Measurements as given in paper PMC6881066, “Non-sedating benzodiazepines cause paralysis and tissue damage in the parasitic blood fluke Schistosoma mansoni” (PLoS Neglected Tropical Diseases, 2019).
pIC50, pKi: −log10 of the molar value. “Also recorded” adds a separate entry of the source. Where two headings read alike, the source gives them in different places.

Experiments:
adult male S. mansoni [1] = assay: Adult schistosome mobility assay (inhibition of movement); type: cell-based, Schistosoma mansoni; conditions: for pIC50: Schistosoma mansoni, adult male worms cultured in compound overnight, movement relative to DMSO control; for Potency at evoking coiled, contractile paralysis / activity against parasites (in words): in vitro, concentration-response, Fig 2B & 2C
[2] = molecular target: mammalian GABAARs (central benzodiazepine binding site); assay: [3H]flunitrazepam displacement binding assay, rat cerebral cortex membranes; conditions: rat brain membrane preparations, 0.4 nM radioligand, 60 min at 4°C
Description: Binding assays for benzodiazepines against mammalian GABAARs were performed measuring displacement of [3H] flunitrazepam (0.4 nM) from crude brain membrane preparations. Rat cerebral cortex membrane homogenate (80 μg protein) was incubated with 0.4 nM [3H]-flunitrazepam in 50 mM Tris-HCl (pH 7.7), plus test compounds (screened at concentrations ranging from 0.1 nM to 10 μM), and non-specific binding was assessed by incubation with diazepam (3 μM). Following incubation for 60 min at 4°C, samples were vacuum filtered through glass fiber filters (GF/B, Packard) presoaked with 0.3% PEI and rinsed with ice-cold 50 mM Tris-HCl (Unifilter, Packard). Filters were dried and counted for radioactivity in a scintillation counter (Topcount, Packard). Ki values of test compounds were calculated by the Cheng-Prusoff equation.

adult male S. mansoni [3] = assay: In vitro screen / re-screen for coiled, contractile (curl) phenotype; type: cell-based, Schistosoma mansoni; conditions: for Worms showing curl phenotype: overnight
[4] = cited from earlier work
schistosomes = test system: schistosomes; parameters: method as in PMID 380021; conditions: human clinical trials; cited from earlier work
S. japonicum = conditions: no reference given; cited from earlier work
[5] = human clinical trials; cited from earlier work
S. mansoni = assay: Recovery of worm movement following drug washout; type: cell-based, Schistosoma mansoni; conditions: 14 hours treatment, recovery 3 hours, 1 day after washout
Description: Female Swiss Webster mice infected with S. mansoni cercariae (NMRI strain) were sacrificed 49 days post infection by CO2 euthanasia. Adult schistosomes were recovered by dissection of the mesenteric vasculature. Harvested schistosomes were washed in DMEM (ThermoFisher cat. # 11995123) supplemented with HEPES (25mM), 5% v/v heat inactivated FCS (Sigma Aldrich cat. # 12133C) and Penicillin-Streptomycin (100 units/mL). Worms were cultured in 6 well dishes (4–5 male worms in 3mL media per well) in the presence of various test compounds or DMSO vehicle control overnight (37°C / 5% CO2). Worms were imaged the next day to record movement phenotypes using a Zeiss Discovery v20 stereomicroscope and a QiCAM 12-bit cooled color CCD camera controlled by Metamorph imaging software (version 7.8.1.0). 1 minute recordings were acquired at 4 frames per second and saved as a .TIFF stack, which was imported into ImageJ for analysis. An outline of the workflow used to quantify movement from these video recordings is shown in S1 Fig. Maximum intensity projections were generated for the entire stack of images (241 frames for a 1-minute recording) and integrated pixel values were measured for the resulting composite image, allowing normalization of movement relative to DMSO control treated worms. Inhibition of movement IC50 values were calculated using GraphPad Prism v8.1.1 and are expressed ± 95% confidence intervals. Data represents mean ± standard error for ≥3 independent experiments. Significance (*) was determined by unpaired t-test at a threshold of 0.05.
(§1) Fig 4 Xhe-II-048 damages the schistosome tegument. (A) Transmission electron microscopy images of transverse sections of S. mansoni exposed to either DMSO control, MCLZ (5 μM) or various imidazobenzodiazepines (10 μM, 14 hours). Dorsal tegument is oriented to the top. Scale = 2 μm. Arrowed = vacuoles beneath the tegument apical membrane. (B) Movement of worms treated with DMSO, MCLZ, or TMS-acetylene imidazobenzodiazepine compounds (10 μM, 14 hours), and recovery at various timepoints (3 hours, 1 day) following drug washout.

SmGluCl = test system: SmGluCl; parameters: method as in PMID 24009509; conditions: cited from earlier work
S. mansoni tegument = assay: Transmission electron microscopy of drug-treated worms (tegument damage); type: cell-based, Schistosoma mansoni
Description: Adult worms were harvested and recovered as above. Fixation was carried out overnight at 4°C in 2.5% glutaraldehyde/2% paraformaldehyde in 0.1 M sodium cacodylate (pH 7.3). Worms were washed 3 × 10 minutes in 0.1 M sodium cacodylate and post-fixed for 2 hours on ice in reduced 1% osmium tetraoxide. Worms were then washed 2 × 10 minutes in distilled water and stained overnight at 4°C in alcoholic Uranyl Acetate. Worms were rinsed in distilled water, dehydrated in 50%, 75% and 95% MeOH, followed by successive 10 minute rinses in 100% MeOH and acetonitrile. Worms were incubated in a 1:1 mix of acetonitrile and epoxy resin for 1 hour prior to 2 × 1 hour incubations in epoxy resin. Worms were then cut transversely and embedded overnight in epoxy resin (60°C). Ultra-thin sections (70 nm) were cut onto bare 200-mesh copper grids and stained in aqueous lead citrate for 1 minute. Sections were imaged on a Hitachi H-600 electron microscope fitted with a Hamamatsu C4742-95 digital camera) operating at an accelerating voltage of 75 kV.
Given the parasite-selectivity of imidazobenzodiazepines (Fig 3, blue) relative to MCLZ-like compounds (Fig 3, red), we investigated the effects of XliHeII-048, Xhe-II-048 and SH-I-055 on schistosome tissues in more detail. Specifically, we were interested in drug-evoked damage to the parasite tegument, which is a feature of many anti-schistosomal compounds [38]. Worms treated with DMSO vehicle control, MCLZ (5 μM) or various imidazobenzodiazepines (10 μM, based on effective concentrations determined in Fig 2) overnight were fixed and processed for imaging by transmission electron microcopy (TEM).
as §1

schistosomiasis = test system: schistosomiasis; parameters: method as in PMID 21695161, PMID 28619227; conditions: PZQ treatment; cited from earlier work
[6] = inactive compounds tested at concentrations as high as 50 μM

O=C1CN=C(c2ccccc2Cl)c2cc([N+](=O)[O-])ccc2N1 [CLZ, clonazepam, reference compound]
Decrease in potency relative to MCLZ (loss of C3 methyl group) (adult male S. mansoni [1]; Fig 3): > 3 log
pIC50 (adult male S. mansoni [1]; [6]): 5.72
pKi [2]: 9.09

C[C@H]1N=C(c2ccccc2F)c2cc(C#C[Si](C)(C)C)ccc2NC1=O [GL-I-61]
Worms showing curl phenotype (adult male S. mansoni [3]; 10 micromolar): 3/8 curling at 10 micromolar

O=C1CN=C(c2ccc(Cl)cc2)c2cc(Cl)ccc2N1 [GL-I-74]
Worms showing curl phenotype (adult male S. mansoni [3]; 10 micromolar): 1/8 curl at 10 micromolar

CCOC(=O)c1ncn2c1[C@H](C)N=C(c1ccccc1F)c1cc(C3CC3)ccc1-2 [GL-I-78]
Potency at evoking coiled, contractile paralysis / activity against parasites (in words) (adult male S. mansoni [1]): dramatically decreased affinity
Worms showing curl phenotype (adult male S. mansoni [3]; 10 micromolar): Inactive (0/8 curl) at 10 micromolar

C[C@H]1N=C(c2ccccc2F)c2cc(Br)ccc2-n2cnc(-c3cnco3)c21 [GL-III-36]
Worms showing curl phenotype (adult male S. mansoni [3]; 10 micromolar): inactive (0/8 curling) at 10 micromolar

C[C@H]1N=C(c2ccccc2F)c2cc(C#C[Si](C)(C)C)ccc2-n2cnc(-c3cnco3)c21 [GL-III-72]
Worms showing curl phenotype (adult male S. mansoni [3]; 10 micromolar): 5/8 curl at 10 micromolar

Brc1ccc2c(c1)C(c1ccccc1)=NCc1c(-c3cnco3)ncn1-2 [KRM-II-73]
Worms showing curl phenotype (adult male S. mansoni [3]; 10 micromolar): 2/8 curl at 10 micromolar

Cc1ncoc1-c1ncn2c1CN=C(c1ccccc1)c1cc(Br)ccc1-2 [KRM-III-66]
Worms showing curl phenotype (adult male S. mansoni [3]; 10 micromolar): 6/8 curl at 10 micromolar

C#Cc1ccc2c(c1)C(c1ccccn1)=NCc1c(-c3ocnc3C)ncn1-2 [KRM-III-79]
Worms showing curl phenotype (adult male S. mansoni [3]; 10 micromolar): 5/8 curl at 10 micromolar

C[C@@H]1N=C(c2ccccc2Cl)c2cc([N+](=O)[O-])ccc2NC1=O [MCLZ, meclonazepam]
Bioavailability ([4]; MCLZ): orally bioavailable
Half-life ([4]; MCLZ): up to 80 hours
Effective anti-parasitic dose (schistosomes): 0.2 to 0.3 mg/kg
Activity against S. japonicum (S. japonicum): inactive
pIC50 (adult male S. mansoni [1]): 6.80
pKi [2]: 8.62
Dose at which sedation was reported [5]: above 0.3 mg/kg
Recovery of movement following drug washout (S. mansoni; MCLZ): do not recover movement
Activity against SmGluCl (SmGluCl): inactive
Tegument ultrastructure (TEM) (S. mansoni tegument; 5 μM, overnight): pervasive vacuolization of the tegument

C[C@@H]1N=C(c2ccccc2)c2cc([N+](=O)[O-])ccc2NC1=O [MYM-I-88]
pIC50 (adult male S. mansoni [1]; [6]): 4.59
pKi [2]: 7.12

C[C@@H]1N=C(c2ccccc2F)c2cc([N+](=O)[O-])ccc2NC1=O [MYM-I-91A]
pIC50 (adult male S. mansoni [1]; [6]): 5.14
pKi [2]: 7.92

C[C@@H]1N=C(c2ccccc2Cl)c2cc([N+](=O)[O-])ccc2N(C)C1=O [MYM-II-53]
pIC50 (adult male S. mansoni [1]; [6]): < 4.30
pKi [2]: 8.39

O=C(C1CCCCC1)N1CC(=O)N2CCc3ccccc3C2C1 (centres unmarked) [PZQ, praziquantel]
Cure rates (schistosomiasis): 70–90%

C#Cc1ccc2c(c1)C(c1ccccc1F)=N[C@@H](C)c1c(C(=O)OCC)ncn1-2 [SH-053-2’F-S-CH3]
Potency at evoking coiled, contractile paralysis / activity against parasites (in words) (adult male S. mansoni [1]): dramatically decreased affinity

CCOC(=O)c1ncn2c1[C@H](C)N=C(c1ccccc1F)c1cc(Br)ccc1-2 [SH-I-48B]
Potency at evoking coiled, contractile paralysis / activity against parasites (in words) (adult male S. mansoni [1]): dramatically decreased affinity
Activity (curl phenotype) (adult male S. mansoni [3]; up to 100 micromolar): Inactive up to 100 micromolar

CCOC(=O)c1ncn2c1[C@H](C)N=C(c1ccccc1F)c1cc(C#C[Si](C)(C)C)ccc1-2 [SH-I-055]
pIC50 (adult male S. mansoni [1]; [6]): 5.85
Times less potent than XliHeII-048 (adult male S. mansoni [1]; movement IC50 comparison): ~ 3 times
pKi [2]: 5.77
Worms showing curl phenotype (adult male S. mansoni [3]; 5 micromolar): 4/8
Worms showing curl phenotype (adult male S. mansoni [3]; 10 micromolar): 8/8
Recovery of movement following drug washout (S. mansoni; 10 μM): recovering by 1 day after drug washout
Tegument ultrastructure (TEM) (S. mansoni tegument; 10 μM, overnight (14 hours)): normal tissue ultrastructure

CCOC(=O)c1ncn2c1[C@@H](C)N=C(c1ccccc1F)c1cc(C#C[Si](C)(C)C)ccc1-2 [SH-I-060]
Potency at evoking coiled, contractile paralysis / activity against parasites (in words) (adult male S. mansoni [1]): marked decrease in potency; also recorded: essentially inactive

CCOC(=O)c1ncn2c1CN=C(c1ccccc1)c1cc(C#C[Si](C)(C)C)ccc1-2 [Xhe-II-048]
pIC50 (adult male S. mansoni [1]): 6.07
pKi [2]: 5.60
Recovery of movement following drug washout (S. mansoni; 10 μM): did not recover movement up to one day
Tegument ultrastructure (TEM) (S. mansoni tegument; 10 μM, overnight (14 hours)): extensive vacuole distribution beneath the apical membrane

CCOC(=O)c1ncn2c1CN=C(c1ccccc1F)c1cc(C#C[Si](C)(C)C)ccc1-2 [XliHeII-048]
pIC50 (adult male S. mansoni [1]): 6.27
pKi [2]: 5.80
Worms showing curl phenotype (adult male S. mansoni [3]; 10 micromolar): 5/5
Recovery of movement following drug washout (S. mansoni; 10 μM): recovering by 1 day after drug washout
Tegument ultrastructure (TEM) (S. mansoni tegument; 10 μM, overnight (14 hours)): normal tissue ultrastructure

CCOC(=O)c1ncn2c1CN(C)C(=O)c1cc(F)ccc1-2 [flumazenil]
Elimination half-life ([4]; flumazenil, administered by IV): < 1 h
Bioavailability ([4]; flumazenil): poor bioavailability

O=C1CN=C(c2ccccc2)c2cc([N+](=O)[O-])ccc2N1 [nitrazepam, reference compound]
pIC50 (adult male S. mansoni [1]; [6]): < 4.30
Potency at evoking coiled, contractile paralysis / activity against parasites (in words) (adult male S. mansoni [1]): inactive against parasites
